Key:
[1] = system: HEK293 cells (Mock); details: HEK293 cells (Mock) with pcDNA3.1(−), not expressing PLACE6002312; [^3H]-histamine 0, 40, 80, 160 nM; room temperature 1 hr; FIG. 7
Method: (§1) The ligand-binding assay can serve as a direct method of receptor pharmacology, and is applicable to high-throughput systems. […] First, human embryonic kidney 293 (HEK293) cells were plated on a 10-cm cell culture dish at the cell density of 1×10^6 cells/dish, and incubated in a humidified incubator under 5% CO2 at 37° C. for 24 hr. Then, 10 μg/dish of pcDNA3.1(−)-PLACE6002312 plasmid was transfected by the calcium phosphate method (Mol. Pharm. (1997)-51: 171). After the culturing was continued for 14 hr, the medium was changed with fresh D-MEM containing 10% FBS, and the cells were incubated for another 2 days. After the culturing had completed, the cells were washed with PBS(−), and then suspended in FBS-free D-MEM at the cell density of 1×10^6 cells/ml. The cell suspension were aliquoted (50 μl/well) into flat-bottomed 96-well plate (Sumitomo Bakelite Co.) pre-siliconized with Siliconize L-25 (Fuji Systems). 50-μl aliquots of D-MEM were added to each well, and then radio-labeled [^3H]-histamine was added thereto at the final concentrations of 0, 40, 80, and 160 nM. The plate was incubated at room temperature for 1 hr. Assays for the non-specific binding of [^3H]-histamine were carried out using D-MEM to which unlabeled histamine had been added previously at the final concentration of 1×10^−5 M. […]

[2] = target: PLACE6002312 polypeptide (Homo sapiens, UniProt Q8TDU6); details: HEK293 cells with pcDNA3.1(−)-PLACE6002312; [^3H]-histamine 0, 40, 80, 160 nM; room temperature 1 hr; non-specific binding with 1×10^−5 M unlabeled histamine; FIG. 7
Method: as §1

Sequence of PLACE6002312 polypeptide (Q8TDU6 whole entry): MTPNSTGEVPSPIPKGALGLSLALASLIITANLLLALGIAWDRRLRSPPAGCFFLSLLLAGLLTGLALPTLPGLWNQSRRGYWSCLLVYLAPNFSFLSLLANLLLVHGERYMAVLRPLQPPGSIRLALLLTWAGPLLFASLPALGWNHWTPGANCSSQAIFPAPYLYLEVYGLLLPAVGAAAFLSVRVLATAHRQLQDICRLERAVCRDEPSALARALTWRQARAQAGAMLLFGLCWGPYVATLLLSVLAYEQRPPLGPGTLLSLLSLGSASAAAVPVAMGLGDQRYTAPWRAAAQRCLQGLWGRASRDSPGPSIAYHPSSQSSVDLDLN

specific binding to [^3H]-histamine (total binding minus non-specific binding) [2]: detected
Structure (SMILES): NCCc1c[nH]cn1 [histamine]
specific binding to [^3H]-histamine (total binding minus non-specific binding) [1]: undetectable

Source: patent US20040147720A1, “Novel guasonine triphosphate-binding protein -coupled receptor place 6002312, its gene and production and use of the same” (priority 2001, published 2004)
